Measurements reported in US20240254129A1, “HETEROCYCLIC COMPOUNDS AND USES THEREOF” (Kumquat Biosciences Inc., priority 2021, published 2024).
Like-named read-outs stand apart in the source and are kept apart here.

Experiments:
[1] = molecular target: GST-tagged K-Ras mutant / His-tagged hSOS1 (Homo sapiens, UniProt P01116); assay: HTRF assay, K-Ras mutant / SOS1 interaction; format: binding; settings: read-out: IC50 against mutant Kras
Excerpt: (§1) This assay can be also used to assess a selective inhibition of a mutant Ras protein relative to a wildtype, or relative to a different mutant Ras protein. For example, the equilibrium interaction of wildtype Kras or K-Ras mutant (e.g., wildtype or a mutant thereof including those mentioned in Example 6) with SOS1 (e.g., hSOS1) can be assessed as a proxy or an indication for a subject compound's ability to bind and inhibit Ras protein. HTRF assay detects from (i) a fluorescence resonance energy transfer (FRET) donor (e.g., antiGST-Europium) that is bound to GST-tagged K-Ras mutant to (ii) a FRET acceptor (e.g., anti-6His-XL665) bound to a His-tagged hSOS1.
(§2) The assay buffer can contain ˜5 mM HEPES pH 7.4, ˜150 mM NaCl, ˜ 1 mM DTT, 0.05% BSA and 0.0025% (v/v) Igepal. A Ras working solution is prepared in an assay buffer containing typically a suitable amount of the protein construct (e.g., GST-tagged K-Ras mutant) and the FRET donor (e.g., antiGST-Eu(K) from Cisbio, France). A SOS1 working solution is prepared in an assay buffer containing suitable amount of the protein construct (e.g., His-hSOS1) and the FRET acceptor (e.g., anti-6His-XL665 from Cisbio, France). A suitable amount of the protein construct will depend on the range of activity or range of IC50 values being detected or under investigation. For detecting IC50 within a range of 500 nM, the protein constructs of the same range of molarity can be utilized.
(§3) A fixed volume of DMSO with or without test compound is transferred into a 384-well plate. Ras working solution is added to all wells of the test plate. SOS1 working solution is added to all wells except for those that are subsequently filled the inhibitor control solution. Upon incubation for about 10 minutes or longer, the fluorescence is measured with a M1000Pro plate reader (Tecan) using HTRF detection (excitation 337 nm, emission 1: 620 nm, emission 2: 665 nm). Compounds are tested in duplicates at different concentrations (for example, 10 μM, 2.5 μM, 0.63 μM, 0.16 μM, 0.04 µM, 0.01 μM test compound). The ratiometric data (i.e., emission 2 divided by emission 1) is used to calculate IC50 values against Ras using GraphPad Prism (GraphPad software). Following this general procedure, samples were tested with or without a subject compound disclosed herein including compounds exemplified in Table 1 to assess their abilities to inhibit K-Ras signaling or their respective IC50 values against a given Ras protein (e.g., a given mutant K-Ras) of interest.

[2] = molecular target: T1, wildtype Kras / hSOS1 (Homo sapiens, UniProt P01116); assay: HTRF assay, wildtype Kras / SOS1 interaction; format: binding; settings: read-out: IC50 against wildtype Kras
T1 construct: made in house; host or cells: E. coli BL21 (DE3)
Excerpt: as §1, §2, §3

[3] = compound nos. 201-213, general methodology of example 5

GST-tagged K-Ras mutant / His-tagged hSOS1, sequence (P01116 whole entry G12D, form open): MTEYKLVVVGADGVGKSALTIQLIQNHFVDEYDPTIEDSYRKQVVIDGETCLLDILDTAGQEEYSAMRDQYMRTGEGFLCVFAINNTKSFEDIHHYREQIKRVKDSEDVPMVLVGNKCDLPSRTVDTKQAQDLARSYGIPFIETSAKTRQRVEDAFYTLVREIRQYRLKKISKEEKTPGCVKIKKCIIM
T1 sequence (P01116 1-188 isoform P01116-2): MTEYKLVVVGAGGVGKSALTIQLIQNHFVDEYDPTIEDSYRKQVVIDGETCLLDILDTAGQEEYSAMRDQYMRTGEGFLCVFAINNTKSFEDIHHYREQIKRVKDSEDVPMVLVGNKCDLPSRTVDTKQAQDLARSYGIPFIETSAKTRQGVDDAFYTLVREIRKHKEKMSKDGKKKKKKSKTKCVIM

| SMILES | IC50 ([1]; compound nos. 401-703) | IC50 ([2]; compound nos. 401-703) | IC50 [1, 3] | IC50 [2, 3] |
| --- | --- | --- | --- | --- |
| Nc1nc2c(-c3c(Cl)cc4c(N5CCC6CNCC6C5)nc(OC[C@@]56CCCN5C[C@H](F)C6)nc4c3F)ccc(F)c2s1 (stereo partly drawn) [Compound 623, 4-(6-chloro-8-fluoro-2-(((2R,7aS)-2-fluorotetra-hydro-1H-pyrrolizin-7a(5H)-yl)methoxy)-4-(octahydro-5H-pyrrolo[3,4-c]pyridin-5-yl)quinazolin-7-yl)-7-fluoro-benzo[d]thiazol-2-amine] | < 500 nM | > 500 nM |  |  |
| CNCCCN1[C@@H]2CC[C@H]1CN(c1nc(OCC34CCCN3CCC4)nc3c(F)c(-c4ccc(F)c5sc(N)nc45)c(Cl)cc13)C2 [Compound 594, 4-(6-chloro-8-fluoro-4-((1R,5S)-8-(3-(methyl-amino)propyl)-3,8-diaza-bicyclo[3.2.1]octan-3-yl)-2-((tetrahydro-1H-pyrrol-izin-7a(5H)-yl)methoxy)-quinazolin-7-yl)-7-fluoro-benzo[d]thiazol-2-amine] | < 500 nM | > 500 nM |  |  |
| Nc1cccc(-c2c(Cl)cc3c(N4CC5CCC(C4)N5)nc(OCC45CCCN4CCC5)nc3c2F)c1F [Compound 440, 3-(4-(3,8-diazabicyclo-[3.2.1]-octan-3-yl)-6-chloro-8-fluoro-2-((tetrahydro-1H-pyrrolizin-7a(5H)-yl)meth-oxy)quinazolin-7-yl)-2-fluoroaniline] | > 500 nM | < 500 nM |  |  |
| Nc1nc2c(-c3c(Cl)cc4c(N5CC6CCC(C5)N6)nc(OCC56CCCN5CCC6)nc4c3F)c(F)ccc2s1 [Compound 578, 4-(4-(3,8-diazabicyclo-[3.2.1]octan-3-yl)-6-chloro-8-fluoro-2-((tetrahydro-1H-pyrrolizin-7a(5H)-l)meth-oxy)quinazolin-7-yl)-5-fluorobenzo[d]thiazol-2-amine] | < 500 nM | > 500 nM |  |  |
| Nc1nc2c(-c3c(Cl)cc4c(N5CC6CCC(C5)N6)nc(OCC5(CN6CCCC6)CC5)nc4c3F)ccc(F)c2s1 [Compound 553, 4-(4-(3,8-diazabicyclo-[3.2.1]-octan-3-yl)-6-chloro-8-fluoro-2-((1-(pyrrolidin-1-ylmethyl)cyclopropyl)meth-oxy)quinazolin-7-yl)-7-fluorobenzo[d]thiazol-2-amine] | < 500 nM | > 500 nM |  |  |
| Nc1ccc2cccc(-c3c(Cl)cc4c(N5CC6CCC(C5)N6)nc(OC[C@@]56CCCN5C[C@H](F)C6)nc4c3F)c2n1 [Compound 606, 8-(4-(3,8-diazabicyclo-[3.2.1]octan-3-yl)-6-chloro-8-fluoro-2-(((2R,7aS)-2-fluorotetrahydro-1H-pyrrol-izin-7a(5H)-yl)methoxy)-quinazolin-7-yl)quinolin-2-amine] | > 500 nM | > 500 nM |  |  |
| CN(C)C/C=C/C(=O)N1CC2(CCCN(c3nc(OC[C@@]45CCCN4C[C@H](F)C5)nc4c(F)c(-c5ccc(F)c6sc(N)c(C#N)c56)c(Cl)cc34)C2)C1 [Compound 522, 2-amino-4-(6-chloro-4-(2-((E)-4-(dimethylamino)but-2-enoyl)-2,6-diazaspiro[3.5]nonan-6-yl)-8-fluoro-2-(((2R,7aS)-2-fluorotetrahydro-1H-pyrrolizin-7a(5H)-yl)methoxy)quinazolin-7-yl)-7-fluorobenzo[b]thiophene-3-carbonitrile] | < 500 nM | > 500 nM |  |  |
| Nc1nc2c(-c3c(Cl)cc4c(N5C[C@H]6CC[C@@H](C5)N6)nc(OCC5(CN6CCCC6)CC5)nc4c3F)ccc(F)c2s1 [Compound 211, 4-(4-((1R,5S)-3,8-diaza-bicyclo[3.2.1]octan-3-yl)-6-chloro-8-fluoro-2-((1-(pyrrolidin-1-ylmethyl)-cyclopropyl)methoxy)quin-azolin-7-yl)-7-fluorobenzo-[d]thiazol-2-amine] |  |  | < 1500 nM | < 1500 nM |
| Nc1nc2c(-c3c(Cl)cc4c(N5CC6CCC(C5)N6)nc(OCCCN5CCCC5)nc4c3F)ccc(F)c2s1 [Compound 457, 4-(4-(3,8-diazabicyclo-[3.2.1]octan-3-yl)-6-chloro-8-fluoro-2-(3-(pyrrolidin-1-yl)propoxy)quinazolin-7-yl)-7-fluorobenzo[d]thiazol-2-amine] | > 500 nM | < 500 nM |  |  |
